Assays:
[1] = target: T1, bradykinin 1 receptor (B1R) of the rat (Rattus norvegicus, UniProt P97583); test: Functional investigation on the rat bradykinin 1 receptor (B1R), Ca2+ FLIPR assay in CHO K1 rB1R cells; assay type: cell-based; details: B1R antagonism rat; test substance 10 μM; Ca2+ FLIPR, CHO K1 rB1R cells
T1 construct: expressed in transfected cells; host or cells: CHO K1 cells
T1 sequence (P97583 1-337): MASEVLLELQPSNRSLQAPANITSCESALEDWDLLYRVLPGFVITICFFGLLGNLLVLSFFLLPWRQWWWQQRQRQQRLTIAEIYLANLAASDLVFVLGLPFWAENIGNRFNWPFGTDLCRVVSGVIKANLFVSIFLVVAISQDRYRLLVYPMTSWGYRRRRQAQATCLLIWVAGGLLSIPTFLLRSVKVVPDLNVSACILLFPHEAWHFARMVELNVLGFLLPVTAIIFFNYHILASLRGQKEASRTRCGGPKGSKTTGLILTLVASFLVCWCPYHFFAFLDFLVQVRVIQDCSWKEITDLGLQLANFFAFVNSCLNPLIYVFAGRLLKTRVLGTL
Summary of the method: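 Stably transfected CHO K1 cells loaded with Fluo-4; FLIPR Ca2+ fluorescence peak (ex 488/em 540 nm). Compound added first (agonism vs Lys-Des-Arg9-bradykinin ≥50 nM human, Des-Arg9-bradykinin 10 μM rat), then after 10-20 min agonist at EC80; antagonism as % inhibition, IC50 from concentration series, n=2-3, N≥2.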

human μ opiate receptor = target: T2, human μ opiate receptor (Homo sapiens, UniProt P35372); test: Affinity for the human μ opiate receptor ([3H]-naloxone displacement, CHO-K1 receptor membrane preparation, SPA); assay type: binding; details: test concentration of 1 μM
T2 construct: purchased PerkinElmer Life Sciences, Zaventem, Belgium RB-HOM; host or cells: CHO-K1 cells (membrane preparation)
T2 sequence (P35372 whole entry): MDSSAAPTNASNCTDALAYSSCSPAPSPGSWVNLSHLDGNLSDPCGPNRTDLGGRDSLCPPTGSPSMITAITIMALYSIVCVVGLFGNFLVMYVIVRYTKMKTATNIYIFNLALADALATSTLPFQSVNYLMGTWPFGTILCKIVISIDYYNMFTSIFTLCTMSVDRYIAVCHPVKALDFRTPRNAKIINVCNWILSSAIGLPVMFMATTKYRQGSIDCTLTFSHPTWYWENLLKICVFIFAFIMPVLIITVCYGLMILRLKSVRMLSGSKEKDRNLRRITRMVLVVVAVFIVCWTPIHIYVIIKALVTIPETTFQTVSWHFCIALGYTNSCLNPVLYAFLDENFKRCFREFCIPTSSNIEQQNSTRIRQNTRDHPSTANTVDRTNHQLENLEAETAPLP
Summary of the method: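 CHO-K1 membranes expressing human μ receptor incubated 90 min at room temperature with 1 nmol/l [3H]-naloxone and WGA-SPA beads in 50 mmol/l Tris-HCl, 0.06% BSA; 100 μmol/l naloxone defines non-specific binding. Values are % inhibition of specific binding at 1 μM; IC50 converted to Ki by Cheng-Prusoff.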

Compound | B1R Ant. r [10 μM] % Inhibition [1] [%] | μ (binding on the μ opioid receptor, % inhibition) (human μ opiate receptor) [%]
COc1cc(C)c(S(=O)(=O)N2CCC(OCC(=O)NC3CCC(C(c4ccc(F)cc4)N(C)C)CC3)C2)c(C)c1 (stereo not drawn) [Example 441] | 84 | 49
COc1cc(C)c(S(=O)(=O)N2CCC(OCC(=O)NC3CCC(C(c4ccc(F)cc4)N(C)C)CC3)C2)c(C)c1C (stereo not drawn) [Example 365] | 2 | 49
COc1ccc(S(=O)(=O)N2Cc3ccccc3CC2COCC(=O)NCCC2CCC(C(c3ccc(Cl)cc3)N(C)C)CC2)cc1 (stereo not drawn) [Example 374] | 11 | 59
Cc1cc(C)c(S(=O)(=O)N2CCC(OCC(=O)NCC3CCC(C(c4ccc(Cl)cc4)N(C)C)CC3)C2)c(C)c1 (stereo not drawn) [Example 393] | 39 | 55
CN(C)C(CCc1ccccc1)C1CCC(CNC(=O)COCCN(C)S(=O)(=O)c2ccc(Cl)cc2)CC1 (stereo not drawn) [Example 445] | 46 | 44
COc1ccc(S(=O)(=O)N2CCCCC2COCC(=O)NCC2CCC(C(c3ccc(Cl)cc3)N(C)C)CC2)cc1OC (stereo not drawn) [Example 367] | 2 | 60
CCN(CCOCC(=O)NCCC1CCC(C(c2ccc(F)cc2)N(C)C)CC1)S(=O)(=O)c1c(C)cc(OC)c(C)c1C (stereo not drawn) [Example 413] | 83 | 55
COc1ccc(S(=O)(=O)N2CCCC2COCC(=O)NCCC2CCC(C(c3ccc(F)cc3)N(C)C)CC2)cc1 (stereo not drawn) [Example 409] | 48 | 54
Cc1cc(C)c(S(=O)(=O)N(C)CCOCC(=O)NCCC2CCC(C(c3ccc(Cl)cc3)N(C)C)CC2)c(C)c1 (stereo not drawn) [Example 416] | 30 | 53
COc1cc(C)c(S(=O)(=O)N2CCN(CCOCC(=O)NCC3CCC(C(c4ccc(F)cc4)N(C)C)CC3)CC2)c(C)c1C (stereo not drawn) [Example 366] | 16 | 55
CN(C)C(c1ccc(F)cc1)C1CCC(CCNC(=O)COCCN(C)S(=O)(=O)c2cccc(C(F)(F)F)c2)CC1 (stereo not drawn) [Example 368] | 17 | 61
COc1ccc(S(=O)(=O)N2CCCCC2CCOCC(=O)NCCC2CCC(C(c3ccc(Cl)cc3)N(C)C)CC2)cc1 (stereo not drawn) [Example 383] | 33 | 59
CN(C)C(c1ccc(Cl)cc1)C1CCC(CCNC(=O)COC2CCCN(S(=O)(=O)c3ccccc3)C2)CC1 (stereo not drawn) [Example 395] | 15 | 54
COc1ccc(S(=O)(=O)N2CCCCC2COCC(=O)NCC2CCC(C(c3ccc(F)cc3)N(C)C)CC2)c(OC)c1 (stereo not drawn) [Example 405] | 24 | 52
CN(C)C(c1cccc(F)c1)C1CCC(CCNC(=O)COC2CCN(S(=O)(=O)c3ccc(F)cc3)C2)CC1 (stereo not drawn) [Example 407] | 10 | 54
CN(C)C(c1ccc(F)cc1)C1CCC(CNC(=O)COCC2CCCN(S(=O)(=O)c3ccccc3)C2)CC1 (stereo not drawn) [Example 424] | 20 | 39
CN(C)C(c1ccc(Cl)cc1)C1CCC(CNC(=O)COCCN(C)S(=O)(=O)c2ccc(OC(F)(F)F)cc2)CC1 (stereo not drawn) [Example 411] | 3 | 60
Cc1cc(C)c(S(=O)(=O)N2CCC(OCC(=O)NCC3CCC(C(c4ccc(F)cc4)N(C)C)CC3)C2)c(C)c1 (stereo not drawn) [Example 432] | 45 | 56
CN(C)C(c1ccc(F)cc1)C1CCC(CNC(=O)COCCN(C)S(=O)(=O)c2cccc(C(F)(F)F)c2)CC1 (stereo not drawn) [Example 390] | 16 | 55
COc1cc(C)c(S(=O)(=O)N(CCOCC(=O)NCC2CCC(C(c3cccc(F)c3)N(C)C)CC2)Cc2ccccc2)c(C)c1 (stereo not drawn) [Example 388] | 16 | 65
CN(C)C(c1ccc(Cl)cc1)C1CCC(CCNC(=O)COCCN(Cc2ccccc2)S(=O)(=O)c2ccccc2)CC1 (stereo not drawn) [Example 426] | 9 | 48

From patent US8106055B2, “Substituted amide compounds” (Gruenenthal GmbH, priority 2007, dated 2012)
